Results as given in US20230279025A1, “KRAS G12D INHIBITORS” (Mirati Therapeutics, Inc., priority 2020, published 2023).

The molecules below were run against KRas G12D (Homo sapiens (Human), UniProt P01116, G12D) (assay: KRas G12D Binding Assay (TR-FRET displacement of Cy5 labelled tracer)). Settings: GDP-loaded KRAS G12D (amino acids 1:169), 60 minute incubation at 22° C.
Experimental: After a 60 minute incubation at 22° C., the reaction was measured using a PerkinElmer EnVision multimode plate reader via TR-FRET dual wavelength detection, and the percent of control (POC) calculated using a ratiometric emission factor. […] The POC values were fit to a 4-parameter logistic curve and the IC50 value was determined as the concentration where the curve crosses 50 POC.
ND stands for “not determined.”

Sequence of KRas G12D (P01116 other isoform, or with tags, fused parts or gaps G12D): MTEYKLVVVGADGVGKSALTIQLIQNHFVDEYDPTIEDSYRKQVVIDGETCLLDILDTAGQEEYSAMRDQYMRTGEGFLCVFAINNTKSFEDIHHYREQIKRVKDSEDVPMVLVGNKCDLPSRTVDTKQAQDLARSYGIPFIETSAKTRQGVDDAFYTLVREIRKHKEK

SMILES | IC50
CC(C)c1ccccc1-c1ncc2c(N3C[C@H]4CC[C@@H](C3)N4)nc(OCC34CCCN3CCC4)nc2c1F [Example 309, 4-((1R,5S)-3,8-diazabicyclo[3.2.1]octan-3-yl)-8-fluoro-7-(2-isopropylphenyl)-2-((tetrahydro-1H-pyrrolizin-7a(5H)-yl)methoxy)pyrido[4,3-d]pyrimidine] | 205 nM
Cn1nccc1CCOc1nc(N2C[C@H]3CC[C@@H](C2)N3)c2cnc(-c3cccc4cccc(Cl)c34)c(F)c2n1 [Example 144, 4-((1R,5S)-3,8-diazabicyclo[3.2.1]octan-3-yl)-7-(8-chloronaphthalen-1-yl)-8-fluoro-2-(2-(1-methyl-1H-pyrazol-5-yl)ethoxy)pyrido[4,3-d]pyrimidine] | 1700 nM
Fc1c(-c2cccc3cccc(Cl)c23)ncc2c(N3C[C@H]4CC[C@@H](C3)N4)nc(OCCC3CC(F)(F)C3)nc12 [Example 129, 4-((I R,5S)-3,8-diazabicyclo[3.2.1]octan-3-yl)-7-(8-chloronaphthalen-1-yl)-2-(2-(3,3-difluorocyclobutyl)ethoxy)-8-fluoropyrido[4,3-d]pyrimidine] | 4090 nM
CCc1cccc2cc(O)cc(-c3ncc4c(N5CC6CCC(C5)N6)nc(OC[C@]56CCCN5[C@@H](COC(=O)N(C)C)CC6)nc4c3F)c12 [Example 434, 7a-(((4-((1R,5S)-3,8-diazabicyclo[3.2.1]octan-3-yl)-7-(8-ethyl-3-hydroxynaphthalen-1-yl)-8-fluoropyrido[4,3-d]pyrimidin-2-yl)oxy)methyl)hexahydro-1H-pyrrolizin-3-yl)methyl dimethyl carbamate] | 0.7 nM
FCCCc1cccc2cccc(-c3ncc4c(N5C[C@H]6CC[C@@H](C5)N6)nc(OCC56CCCN5CCC6)nc4c3F)c12 [Example 255, 4-((1R,5S)-3,8-diazabicyclo[3.2.1]octan-3-yl)-8-fluoro-7-(8-(3-fluoropropyl)naphthalen-1-yl)-2-((hexahydro-1H-pyrrolizin-7a-yl)methoxy)pyrido[4,3-d]pyrimidine] | 8.7 nM
C[C@H](N)COc1nc(N2CC3CCC(C2)N3)c2cnc(-c3cccc4cccc(Cl)c34)c(F)c2n1 [Example 374, (S)-1-((4-((1R,5S)-3,8-diazabicyclo[3.2.1]octan-3-yl)-7-(8-chloronaphthalen-1-yl)-8-fluoropyrido[4,3-d]pyrimidin-2-yl)oxy)propan-2-amine bis(2,2,2-trifluoroacetate)] | 348 nM
C[C@@H]1C[C@H]1c1ccccc1-c1ncc2c(N3C[C@H]4CC[C@@H](C3)N4)nc(OCC34CCCN3CCC4)nc2c1F [Example 288, 4-((1R,5S)-3,8-diazabicyclo[3.2.1]octan-3-yl)-8-fluoro-2-((hexahydro-1H-pyrrolizin-7a-yl)methoxy)-7-(2-((1R,2R)-2-methylcyclopropyl)phenyl)pyrido[4,3-d]pyrimidine] | 590 nM
C#Cc1c(F)ccc2cccc(-c3ncc4c(N5C[C@H]6CC[C@@H](C5)N6)nc(OC[C@@]56CCCN5C[C@H](F)C6)nc4c3F)c12 [Example 281, 4-((1R,5S)-3,8-diazabicyclo[3.2.1]octan-3-yl)-7-(8-ethynyl-7-fluoronaphthalen-1-yl)-8-fluoro-2-(((2R,7aS)-2-fluorohexahydro-1H-pyrrolizin-7a-yl)methoxy)pyrido[4,3-d]pyrimidine] | 0.9 nM
Oc1cc(-c2ncc3c(N4C[C@H]5CC[C@@H](C4)N5)nc(OCCC(F)(F)F)nc3c2F)c2c(Cl)cccc2c1 [Example 393, 4-(4-((1R,5S)-3,8-diazabicyclo[3.2.1]octan-3-yl)-8-fluoro-2-(3,3,3-trifluoropropoxy)pyrido[4,3-d]pyrimidin-7-yl)-5-chloronaphthalen-2-ol] | 76.3 nM
N#C[C@H]1CCN2CCC[C@@]12COc1nc(N2CC3CCC(C2)N3)c2cnc(-c3cccc4cccc(Cl)c34)c(F)c2n1 (stereo in doubt) [Example 379, 7a-(((4-((1R,5S)-3,8-diazabicyclo[3.2.1]octan-3-yl)-7-(8-chloronaphthalen-1-yl)-8-fluoropyrido[4,3-d]pyrimidin-2-yl)oxy)methyl)hexahydro-1H-pyrrolizine-1-carbonitrile] | 249 nM
Fc1c(-c2cccc3cccc(CC(F)F)c23)ncc2c(N3C[C@H]4CC[C@@H](C3)N4)nc(OCC34CCCN3CCC4)nc12 [Example 247, 4-((1R,5S)-3,8-diazabicyclo[3.2.1]octan-3-yl)-7-(8-(2,2-difluoroethyl)naphthalen-1-yl)-8-fluoro-2-((hexahydro-1H-pyrrolizin-7a-yl)methoxy)pyrido[4,3-d]pyrimidine] | 12.6 nM
COCCNC(=O)O[C@@H]1C[C@@H](COc2nc(N3C[C@H]4CC[C@@H](C3)N4)c3cnc(-c4cccc5cccc(Cl)c45)c(F)c3n2)N(C)C1 [Example 280, (3R,5S)-5-(((4-((1R,5S)-3,8-diazabicyclo[3.2.1]octan-3-yl)-7-(8-chloronaphthalen-1-yl)-8-fluoropyrido[4,3-d]pyrimidin-2-yl)oxy)methyl)-1-methylpyrrolidin-3-yl (2-methoxyethyl)carbamate] | 99.8 nM
Oc1cc(-c2ncc3c(N4C[C@H]5CC[C@@H](C4)N5)nc(OCC45CCCN4CCC5)nc3c2F)c2c(F)cccc2c1 [Example 367, 4-(4-((1R,5S)-3,8-diazabicyclo[3.2.1]octan-3-yl)-8-fluoro-2-((tetrahydro-1H-pyrrolizin-7a(5H)-yl)methoxy)pyrido[4,3-d]pyrimidin-7-yl)-5-fluoronaphthalen-2-ol tris(2,2,2-trifluoroacetate)] | 0.7 nM
O[C@@H]1C[C@@H]2CN(c3nc(N4CCC4)nc4c(F)c(-c5cccc6cccc(Cl)c56)ncc34)C[C@H]1N2 [Example 152, (1R,5R,6R)-3-(2-(azetidin-1-yl)-7-(8-chloronaphthalen-1-yl)-8-fluoropyrido[4,3-d]pyrimidin-4-yl)-3,8-diazabicyclo[3.2.1]octan-6-ol] | 2650 nM
CC(C)c1ncccc1-c1ncc2c(N3C[C@H]4CC[C@@H](C3)N4)nc(OCC34CCCN3CCC4)nc2c1F [Example 307, 4-((1R,5S)-3,8-diazabicyclo[3.2.1]octan-3-yl)-8-fluoro-2-((hexahydro-1H-pyrrolizin-7a-yl)methoxy)-7-(2-isopropylpyridin-3-yl)pyrido[4,3-d]pyrimidine] | 3160 nM
Fc1ccc2cccc(-c3ncc4c(N5C[C@H]6CC[C@@H](C5)N6)nc(OCC56CCCN5CCC6)nc4c3F)c2c1Cl [Example 98, 4-((1R,5S)-3,8-diazabicyclo[3.2.1]octan-3-yl)-7-(8-chloro-7-fluoronaphthalen-1-yl)-8-fluoro-2-((tetrahydro-1H-pyrrolizin-7a(5H)-yl)methoxy)pyrido[4,3-d]pyrimidine bis(2,2,2-trifluoroacetate)] | 1 nM
CO[C@H](C)COc1nc(N2C[C@H]3CC[C@@H](C2)N3)c2cnc(-c3cccc4cccc(Cl)c34)c(F)c2n1 [Example 138, 4-((1R,5S)-3,8-diazabicyclo[3.2.1]octan-3-yl)-7-(8-chloronaphthalen-1-yl)-8-fluoro-2-((R)-2-methoxypropoxy)pyrido[4,3-d]pyrimidine] | 8070 nM
O=C1OCCN1C[C@H]1CC[C@@]2(COc3nc(N4CC5CCC(C4)N5)c4cnc(-c5cccc6cccc(Cl)c56)c(F)c4n3)CCCN12 [Example 442, 3-(((3R,7aR)-7a-(((4-(3,8-diazabicyclo[3.2.1]octan-3-yl)-7-(8-chloronaphthalen-1-yl)-8-fluoropyrido[4,3-d]pyrimidin-2-yl)oxy)methyl)hexahydro-1H-pyrrolizin-3-yl)methyl)oxazolidin-2-one] | 25 nM
Fc1c(-c2cccc3cccc(Cl)c23)ncc2c(N3CC4CCC(C3)N4)nc(OC[C@@]34CCCN3C[C@@H](C(F)(F)F)C4)nc12 (mixture of isomers) [Example 382] | 21.1 nM
Fc1ccc2cccc(-c3ncc4c(N5C[C@H]6CC[C@@H](C5)N6)nc(OC[C@@]56CCCN5C[C@H](F)C6)nc4c3F)c2c1F [Example 430, 4-((1R,5S)-3,8-diazabicyclo[3.2.1]octan-3-yl)-7-(7,8-difluoronaphthalen-1-yl)-8-fluoro-2-(((2R,7aS)-2-fluorotetrahydro-1H-pyrrolizin-7a(5H)-yl)methoxy)pyrido[4,3-d]pyrimidine] | 1 nM
Oc1cc(Cl)c(C(F)(F)F)c(-c2ncc3c(N4C[C@H]5CC[C@@H](C4)N5)nc(OC[C@@]45CCCN4C[C@H](F)C5)nc3c2F)c1 [Example 284, 3-(4-((1R,5S)-3,8-diazabicyclo[3.2.1]octan-3-yl)-8-fluoro-2-(((2R,7aS)-2-fluorohexahydro-1H-pyrrolizin-7a-yl)methoxy)pyrido[4,3-d]pyrimidin-7-yl)-5-chloro-4-(trifluoromethyl)phenol] | 0.1 nM
Nc1ccc(CCOc2nc(N3C[C@H]4CC[C@@H](C3)N4)c3cnc(-c4cccc5cccc(Cl)c45)c(F)c3n2)cn1 [Example 141, 5-(2-((4-((1R,5S)-3,8-diazabicyclo[3.2.1]octan-3-yl)-7-(8-chloronaphthalen-1-yl)-8-fluoropyrido[4,3-d]pyrimidin-2-yl)oxy)ethyl)pyridin-2-amine] | 891 nM
Fc1c(-c2cccc3cccc(Cl)c23)ncc2c(N3C[C@H]4CC[C@@H](C3)N4)nc(OCc3cccn4ccnc34)nc12 [Example 150, 4-((1R,5S)-3,8-diazabicyclo[3.2.1]octan-3-yl)-7-(8-chloronaphthalen-1-yl)-8-fluoro-2-(imidazo[1,2-a]pyridin-8-ylmethoxy)pyrido[4,3-d]pyrimidine] | 1980 nM
Cc1cccc(-c2ncc3c(N4C[C@H]5CC[C@@H](C4)N5)nc(OCC45CCCN4CCC5)nc3c2F)c1Cl [Example 276, 4-((1R,5S)-3,8-diazabicyclo[3.2.1]octan-3-yl)-7-(2-chloro-3-methylphenyl)-8-fluoro-2-((hexahydro-1H-pyrrolizin-7a-yl)methoxy)pyrido[4,3-d]pyrimidine] | 16.2 nM
